Source: article PMC5716993, “The interdomain flexible linker of the polypeptide GalNAc transferases dictates their long-range glycosylation preferences” (Nature Communications, 2017)
Entries after “also recorded” stand apart in the source; their conditions may differ.

Tests used:
[1] = tested on: GalNAc-T2 chimera 1 and 2; assay: Specific activity of GalNAc-T2 chimera 1 and 2; format: biochemical; conditions: 1.4 mM, in words
Method: Specific activity determinations: GalNAc-T glycosylation reactions against (glyco)peptides 1–3 were performed with 75 mM sodium cacodylate, pH 6.5, 1 mM 2-mercaptoethanol, 10 mM MnCl2, 0.25 mM [^3H]-radiolabeled UDP-GalNAc (~6 × 10^8 DPM/µmole, American Radiolabeled Chemicals Inc.), and 1.4 mM (~1.25 mg/ml) of (glyco)peptide (from 4 mM stock in 1 mM TRIS, pH ~7) and varying concentrations (0.01 to 0.5 µM) of transferase (determined by OD280), giving a final reaction volumes of 20 µl in 100 µl capped Eppendorf tubes. […] Before performing time course experiments, the relative activity of each transferase was determined by trial and error against all three peptides to determine the optimal transferase concentration or incubation time that gave no more than 10% peptide glycosylation against the best substrate. […] Total UDP-[^3H]-GalNAc utilization (transfer to peptide substrate and transfer to water, i.e, hydrolysis) was determined by difference after scintillation counting (Beckman LS5801 scintillation counter) 1/20 of the sample before and after passage over Dowex 1 × 8. The extent of [^3H]-GalNAc transfer to peptide and the extent of hydrolysis was determined by Sephadex G10 gel filtration analysis, typically for the longest reaction time point, as previously described. […]

GalNAc-T4 = target: T1, GalNAc-T4 (Homo sapiens, UniProt Q8N4A0); assay: Surface plasmon resonance; format: binding; conditions: SPR; peptide 0.01–5 mM; 25 °C, pH 7.5, 100 µM UDP, 4 mM MnCl2; in words
T1 construct: amino acid residues 36–578 of the human GalNAc-T4; histidine tag (C); made in house; host or cells: Pichia pastoris SMD1168 (pPICZαA, secreted)
Method: SPR experiments were performed at 25 °C with a Biacore X-100 apparatus (Biacore AB) in 25 mM Tris buffer, 1 mM DTT, 4 mM MnCl2, 100 µM UDP, 0.01% surfactant P20, pH 7.5 (running buffer) at 25 °C. Flow cells (CM5 sensor chip; Biacore) were activated for 7 min by injecting 140 µl of 50 mM N-hydroxysuccinimide (NHS): 200 mM ethyl-3(3dimethylamino) propylcarbodiimide (EDC). GalNAc-T4 was immobilized on a flow cell 2 by injection of a 100 µg/ml protein solution diluted with 10 mM sodium acetate buffer with a flow rate of 10 µl/min for 7 min followed by an injection of 130 µl ethanolamine to block any remaining activated groups on the surface. The level of immobilization reached was about 8000 RU. Flow cell 1, used as reference, was blocked with ethanolamine at the same conditions of flow cell 2 without immobilization of protein. Affinity experiments were made using a series of different concentrations of peptide 3 in the range of 0.01–5 mM with a flow rate of 30 µl/min during 100 s. Each injection was followed by a 100 s injection of running buffer (dissociation phase). No regeneration steps were performed between injections. Response data were collected at real time and analyzed with the Biacore® X-100 Evaluation software and plotted as response shift versus analyte concentration.

T1 sequence (Q8N4A0 36-578): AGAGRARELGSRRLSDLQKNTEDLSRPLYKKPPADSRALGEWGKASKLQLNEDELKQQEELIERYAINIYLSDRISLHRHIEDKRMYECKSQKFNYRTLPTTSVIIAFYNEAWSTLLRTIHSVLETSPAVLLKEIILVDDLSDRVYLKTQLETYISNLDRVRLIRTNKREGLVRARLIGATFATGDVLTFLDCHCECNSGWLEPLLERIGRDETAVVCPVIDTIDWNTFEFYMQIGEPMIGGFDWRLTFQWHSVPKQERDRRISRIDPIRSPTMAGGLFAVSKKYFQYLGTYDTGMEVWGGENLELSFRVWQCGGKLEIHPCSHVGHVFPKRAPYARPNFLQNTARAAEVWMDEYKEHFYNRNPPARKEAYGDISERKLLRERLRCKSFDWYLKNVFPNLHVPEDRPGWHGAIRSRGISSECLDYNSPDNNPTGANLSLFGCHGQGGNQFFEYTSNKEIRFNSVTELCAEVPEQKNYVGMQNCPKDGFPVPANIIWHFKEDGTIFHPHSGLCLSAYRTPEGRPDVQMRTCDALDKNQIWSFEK

| Substance | specific activity against monoglycopeptide 2, change [1] | Kd determinability / binding saturation (GalNAc-T4) |
| --- | --- | --- |
| AGAGTTPGPGAGAT*GA [Peptide 2, monoglycopeptide …*GA, T* denotes the Thr-O-GalNAc moiety] | decrease in the observed specific activity |  |
| GAT*GAGAGAGTTPGPG [Peptide 3, monoglycopeptide GAT*…, T* denotes the Thr-O-GalNAc moiety] |  | binding saturation could not be achieved; also recorded: binding saturation was not achieved |
